This series deals with human hair dermal papilla cells (HHDPC). Description: MTT cytotoxicity test of cADPR in human hair dermal papilla cells. It is filed as cell-based. To be noted: cADPR in the concentration range according to the invention (0.01 to 2 ppm tested), 48 hours. The method, then:
To confirm cytotoxicity of cADPR in human hair dermal papilla cells (HHDPC), MTT assay which is a representative method for measuring cytotoxicity and determines cytotoxicity by measuring mitochondrial reducing power by dehydrogenase action was conducted.
Human hair dermal papilla cells were cultured in an HDP kit medium (Human hair dermal papilla cell media kit) at 37° C. in a 5% CO2 incubator (manufactured by Thermo Fisher Scientific, USA).
The cultured cells were dispensed into a 24-well plate at a concentration of 3×10^4 cells/well. After 18 hours, the cADPR mixture solutions according to Preparation Examples 1-1 to 1-6 (0.01, 0.05, 0.1, 0.5, 1 and 2 ppm, respectively) were added to each well. Then, the cells were cultured in the 5% CO2 incubator at 37° C. for 48 hours. After 48 hours of the incubation, each well was washed once with PBS (phosphate buffered saline) solution, and added with 50 μl of 5 mg/mL MTT reagent (Sigma, USA) and 450 μl of fresh medium. The wells were incubated for 2.5 hours and then supernatants were removed.
(In general: Tetrazolium dyes change colour on reduction, which living cells bring about.)

As to `N=c1c2ncn3c2ncn1[C@@H]1O[C@H](COP(=O)(O)OP(=O)(O)OC[C@H]2O[C@@H]3[C@H](O)[C@@H]2O)[C@@H](O)[C@H]1O` [cADPR, Cyclic ADP Ribose], the cytotoxicity entry is recorded as “no cytotoxicity was observed”.

For the origin of these results see US11471474B2, “Pharmaceutical or cosmetic composition for preventing or treating hair loss or promoting hair growth” (priority 2018, dated 2022).
